According to PubChem BioAssay (NCI):
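Step 1: Grow cells in 96-well plates. Step 2: Expose to compound for 48 hours at 5 concentrations. Step 3: Interpolate endpoints linearly; if unreached, use highest concentration. Definition used: TGI = concentration required for complete inhibition of growth.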

Experiments:
Test in all cases: NCI-60 cell line screen, 48 h
[1] = tested on: SF-295 CNS
[2] = tested on: OVCAR-4 ovarian
[3] = tested on: UACC-62 melanoma
[4] = tested on: NCI-H522 lung
[5] = tested on: HCC-2998 colon
[6] = tested on: BT-549 breast
[7] = tested on: OVCAR-3 ovarian
[8] = tested on: SW-620 colon
[9] = tested on: MOLT-4 leukemia
[10] = tested on: KM12 colon
[11] = tested on: DU-145 prostate
[12] = tested on: RPMI-8226 leukemia
[13] = tested on: HCT-116 colon
[14] = tested on: MDA-MB-231 breast
[15] = tested on: PC-3 prostate
[16] = tested on: CCRF-CEM leukemia
[17] = tested on: HS 578T breast
[18] = tested on: NCI/ADR-RES ovarian
[19] = tested on: A549 NSCLC
[20] = tested on: U251 CNS
[21] = tested on: EKVX NSCLC
[22] = tested on: OVCAR-5 ovarian
[23] = tested on: NCI-H226 lung
[24] = tested on: MALME-3M melanoma
[25] = tested on: NCI-H460 lung
[26] = tested on: HT29 colon
[27] = tested on: UACC-257 melanoma
[28] = tested on: A498 renal
[29] = tested on: HOP-92 NSCLC
[30] = tested on: TK-10 renal
[31] = tested on: HOP-62 NSCLC
[32] = tested on: RXF 393 renal
[33] = tested on: K-562 leukemia
[34] = tested on: MDA-N
[35] = tested on: SK-OV-3 ovarian
[36] = tested on: NCI-H23 lung
[37] = tested on: MCF7 breast
[38] = tested on: 786-0 renal
[39] = tested on: T-47D breast
[40] = tested on: CAKI-1 renal
[41] = tested on: HCT-15 colon
[42] = tested on: SF-539 CNS
[43] = tested on: MDA-MB-435
[44] = tested on: SK-MEL-28 melanoma
[45] = tested on: SNB-19 CNS
[46] = tested on: LOX IMVI melanoma
[47] = tested on: ACHN renal
[48] = tested on: HL-60(TB) leukemia
[49] = tested on: SR leukemia
[50] = tested on: COLO 205 colon
[51] = tested on: SN12C renal
[52] = tested on: UO-31 renal
[53] = tested on: SNB-75 CNS
[54] = tested on: IGROV1 ovarian
[55] = tested on: SK-MEL-2 melanoma
[56] = tested on: OVCAR-8 ovarian
[57] = tested on: SF-268 CNS
[58] = tested on: M14 melanoma
[59] = tested on: SK-MEL-5 melanoma

Measured: TGI

COC(=O)C(Cc1c[nH]c2ccccc12)NC(=O)c1ccc(-c2ccc(Cl)cc2Cl)o1 (configuration not stated)
48.5 µM: [5]
49.5 µM: [15]
91 µM: [42]
99.3 µM: [27]
71.4 µM: [29]
67.9 µM: [28]
not listed: [59]
> 100 µM: all other assays above

NC(Cc1ccc(N(CCCl)CCCl)cc1)C(=O)NC(CCC(=O)O)C(=O)O (configuration not stated)
> 100 µM: all assays above
